Source: patent publication US10294214B2, “Positive allosteric modulators of human melanocortin-4 receptor” (Vanderbilt University, priority 2016, dated 2019)

target: hMC4R (Homo sapiens (Human), UniProt P32245); experiment: LANCE cAMP assay, hMC4R PAM; format: cell-based; conditions: HEK293 cells stably expressing the hMC4R; α-MSH at an EC20 dose
Protocol: Analysis of pharmacological properties of compounds was performed using the LANCE cAMP kit (Perkin Elmer). HEK293 cells stably expressing the hMC4R were treated with PAM compounds at doses indicated, then incubated with an Alexa Fluor 647-labeled antibody in stimulation buffer according to manufacturer's instructions for 30 min at RT. Next, α-MSH was added (at an EC20 dose or at doses indicated for concentration-response curves), and plates were incubated for 15 minutes at RT, followed by the addition of 10 μL of detection mix. Plates were then incubated for 30 minutes at RT and read on a Viewlux (Perkin Elmer) using 618 and 671 nm emission filters. IBMX was not included in the assay.

Sequence of hMC4R (P32245 whole entry): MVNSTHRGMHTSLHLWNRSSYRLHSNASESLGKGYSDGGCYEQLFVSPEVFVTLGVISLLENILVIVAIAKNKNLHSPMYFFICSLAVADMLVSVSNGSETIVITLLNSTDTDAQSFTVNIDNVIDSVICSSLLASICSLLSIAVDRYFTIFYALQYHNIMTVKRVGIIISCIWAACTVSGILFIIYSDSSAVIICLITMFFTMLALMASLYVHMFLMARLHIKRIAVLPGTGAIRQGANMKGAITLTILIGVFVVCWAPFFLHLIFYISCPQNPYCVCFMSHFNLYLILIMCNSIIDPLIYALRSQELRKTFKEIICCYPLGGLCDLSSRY

SMILES	hMC4R PAM LANCE pEC50 Mean	hMC4R PAM LANCE Asym Max
O=C(CN1CCC(C2CCCCC2)CC1)Nc1c(C(=O)C2CC2)[nH]c2ccc(Cl)cc12 [Example 38]	6.6	
CC(=O)c1[nH]c2ccccc2c1NC(=O)CN1CCC(C2CCCCC2)CC1 [Example 42]	6.5	
Cc1cccc(N2CCN(CC(=O)Nc3c(C(=O)C4CC4)[nH]c4ccc(Br)cc34)CC2)c1C [Example 9]	6.4	
COC(=O)c1[nH]c2ccc(N3CCOCC3)cc2c1NC(=O)CN1CCC(C2CCCCC2)CC1 [Example 61]	6.6	
CC(=O)c1[nH]c2ccncc2c1NC(=O)CN1CCC(C2CCCC2)CC1 [Example 64]	6.6	
COC(=O)c1[nH]c2cc(Br)ccc2c1NC(=O)CN1CCN(c2ccc(F)cc2)CC1 [Example 6]	6.4	
COC(=O)c1[nH]c2ccccc2c1NC(=O)CN1CCC(N2CCc3ccccc32)CC1 [Example 49]	6.2	
COC(=O)c1[nH]c2ccc(Cl)cc2c1NC(=O)CN1CCCC(C)(C)C1 [Example 80]	6	
O=C(CN1CCC(C2CC2)CC1)Nc1c(C(=O)C2CC2)[nH]c2ccccc12 [Example 54]	6	
CC1(C)CCCN(CC(=O)Nc2c(C(=O)C3CC3)[nH]c3ccncc23)C1 [Example 74]	6.2	
COC(=O)c1[nH]c2ccccc2c1NC(=O)CN1CCC(c2ccccc2)CC1 [Example 11]	6.5	
COC(=O)c1[nH]c2ccc(Cl)cc2c1NC(=O)CN1CCC(Cc2ccccc2)CC1 [Example 21]	6.2	
O=C(CN1CCC(c2ccccc2)CC1)Nc1c(C(=O)C2CC2)[nH]c2ccccc12 [Example 16]	6.2	
CC(=O)c1[nH]c2ccccc2c1NC(=O)CN1CCC(Cc2ccccc2)CC1 [Example 18]	6.1	
COC(=O)c1[nH]c2ccccc2c1NC(=O)CN1CCCC2(CCC2)C1 [Example 29]	5.9	
COC(=O)c1[nH]c2ccc(Cl)cc2c1NC(=O)CN1CCN(c2ccccc2)CC1 [Example 15]	6.2	
COC(=O)c1[nH]c2ccccc2c1NC(=O)CN1CCC(Cc2ccccc2)CC1 [Example 24]	6	
CC(C(=O)Nc1c(C(=O)C2CC2)[nH]c2ccccc12)N1CCC(C2CCCC2)CC1 (stereo not shown) [Example 71]	6.4	
O=C(CN1CCC(c2ccccc2)CC1)Nc1c(C(=O)C2CC2)[nH]c2ccncc12 [Example 67]	6.5	
COC(=O)c1[nH]c2ccc(Br)cc2c1NC(=O)CN1CCC(Cc2ccccc2)CC1 [Example 22]	6.2	
COC(=O)c1[nH]c2ccc(Br)cc2c1NC(=O)C(C)N1CCC(Cc2ccccc2)CC1 (stereo not shown) [Example 20]	6.2	
CC(=O)c1[nH]c2ccccc2c1NC(=O)CN1CCC(OC2CCCCC2)CC1 [Example 77]	5.8	
COC(=O)c1[nH]c2ccc(Br)cc2c1NC(=O)CN1CCN(c2ccccc2)CC1 [Example 17]	6.2	
O=C(CN1CCC2(CCCC2)CC1)Nc1c(C(=O)C2CC2)[nH]c2ccncc12 [Example 68]	6.4	

SMILES	hMC4R PAM LANCE pEC50 Mean	hMC4R PAM LANCE Asym Max
CC(=O)c1[nH]c2ccccc2c1NC(=O)CN1CCN(Cc2ccccc2)CC1 [Example 33]	5.6	
CC1(C)CCCN(CC(=O)Nc2c(C(=O)C3CC3)[nH]c3ccc(Br)cc23)C1 [Example 7]	6.4	
CC(=O)c1[nH]c2ccccc2c1NC(=O)CN1CCC(Oc2ccccc2)CC1 [Example 52]	5.9	
COC(=O)c1[nH]c2ccccc2c1NC(=O)CN1CCC(Nc2ccccc2)CC1 [Example 55]	5.8	
COC(=O)c1[nH]c2ccccc2c1NC(=O)CN1CCC(N(C)c2ccccc2)CC1 [Example 45]	6.3	
CC(=O)c1[nH]c2ccccc2c1NC(=O)C(C)N1CCC(C2CCCC2)CC1 (stereo not shown) [Example 70]	6.4	
COC(=O)c1[nH]c2ccccc2c1NC(=O)CN1CCC(Oc2ccccc2)CC1 [Example 25]	6	
O=C(CN1CCC(c2ccccc2)CC1)Nc1c(C(=O)C2CC2)[nH]c2ccc(N3CCOCC3)cc12 [Example 69]	6.3	
O=C(CN1CCC2(CCCCC2)CC1)Nc1c(C(=O)C2CC2)[nH]c2ccccc12 [Example 65]	6.5	
O=C(CN1CCC(C2CCCC2)CC1)Nc1c(C(=O)C2CC2)[nH]c2ccc(Cl)cc12 [Example 63]	6.7	
COC(=O)c1[nH]c2ccccc2c1NC(=O)CN1CCN(Cc2ccccc2)C(C)(C)C1 [Example 57]	5.6	
O=C(CN1CCC(C2CCCCC2)CC1)Nc1c(C(=O)C2CC2)[nH]c2ccc(N3CCOCC3)cc12 [Example 66]	6.6	
COC(=O)c1[nH]c2ccc(Br)cc2c1NC(=O)CN1CCN(Cc2ccccc2)CC1 [Example 35]	5.8	
CC1(C)CCCN(CC(=O)Nc2c(C(=O)C3CC3)[nH]c3ccc(N4CCOCC4)cc23)C1 [Example 53]	5.7	
CC(=O)c1[nH]c2ccc(Br)cc2c1NC(=O)CN1CCCC(C)(C)C1 [Example 51]	6	
COC(=O)c1[nH]c2ccc(Cl)cc2c1NC(=O)C(C)N1CCC(Cc2ccccc2)CC1 (stereo not shown) [Example 78]	6	
CC1COCCN1c1ccc2[nH]c(C(=O)C3CC3)c(NC(=O)CN3CCCC(C)(C)C3)c2c1 (stereo not shown) [Example 76]	5.7	
O=C(CN1CCC(C2CCCCC2)CC1)Nc1c(C(=O)C2CC2)[nH]c2ccccc12 [Example 37]	6.6	
O=C(CN1CCC(C2CCCC2)CC1)Nc1c(C(=O)C2CC2)[nH]c2ccccc12 [Example 41]	6.4	
O=C(CN1CCC(C2CCCCC2)CC1)Nc1c(C(=O)C2CC2)[nH]c2ccncc12 [Example 62]	6.6	
CC1(C)CCCN(CC(=O)Nc2c(C(=O)C3CC3)[nH]c3ccccc23)C1 [Example 23]	6.1	
CC(=O)c1[nH]c2ccncc2c1NC(=O)CN1CCC(C(C)(C)C)CC1 [Example 72]	6.3	
COC(=O)c1[nH]c2ccc(C)cc2c1NC(=O)CN1CCC(Cc2ccccc2)CC1 [Example 75]	5.9	
COC(=O)c1[nH]c2ccc(Cl)cc2c1NC(=O)CN1CCC(c2ccccc2)CC1 [Example 4]	6.5	

SMILES	hMC4R PAM LANCE pEC50 Mean	hMC4R PAM LANCE Asym Max
O=C(CN1CCC(C2CCCC2)CC1)Nc1c(C(=O)C2CC2)[nH]c2ccncc12 [Example 59]	6.7	
CS(=O)(=O)c1ccc2[nH]c(C(=O)C3CC3)c(NC(=O)CN3CCC(C4CCCCC4)CC3)c2c1 [Example 58]	7.1	
COC(=O)c1[nH]c2ccc(N3CCOCC3C)cc2c1NC(=O)CN1CCC(C2CCCCC2)CC1 (stereo not shown) [Example 60]	6.7	
COC(=O)c1[nH]c2ccc(Br)cc2c1NC(=O)CN1CCN(c2cccc(C)c2C)CC1 [Example 5]	6.5	
CC(=O)c1[nH]c2ccccc2c1NC(=O)CN1CCC(C2CCCC2)CC1 [Example 40]	6.5	
CC(=O)c1[nH]c2ccccc2c1NC(=O)CN1CCC(c2ccccc2)CC1 [Example 19]	6.2	
COC(=O)c1[nH]c2ccc(Br)cc2c1NC(=O)CN1CCCCC1 [Example 26]	6	
O=C(CN1CCN(c2ccccc2)CC1)Nc1c(C(=O)C2CC2)[nH]c2ccncc12 [Example 73]	6.2	
COC(=O)c1[nH]c2ccccc2c1NC(=O)C(C)N1CCC(Cc2ccccc2)CC1 (stereo not shown) [Example 30]	5.9	
COC(=O)c1[nH]c2ccccc2c1NC(=O)CN1CCC(Oc2ccccn2)CC1 [Example 32]	5.8	
CC(C)=C1CCN(CC(=O)Nc2c(C(=O)C3CC3)[nH]c3ccccc23)CC1 [Example 50]	6.1	
COC(=O)c1[nH]c2ccc(Br)cc2c1NC(=O)CN1CCN(C2c3ccccc3-c3ccccc32)CC1 [Example 46]	6.3	48
COC(=O)c1[nH]c2ccc(Br)cc2c1NC(=O)CN1CCN(c2cccc(OC)c2)C(C)C1 (stereo not shown) [Example 13]	6.3	
CCOC(=O)c1[nH]c2ccncc2c1NC(=O)CN1CCCC(C)(C)C1 [Example 28]	5.8	
COC(=O)c1[nH]c2ccc(Br)cc2c1NC(=O)CN1CCCC(C)(C)C1 [Example 79]	6.1	
COC(=O)c1[nH]c2ccc(C)cc2c1NC(=O)CN1CCN(c2cccc(OC)c2)C(C)C1 (stereo not shown) [Example 31]	5.8	
CC(=O)c1[nH]c2ccc(Br)cc2c1NC(=O)CN1CCC(c2ccccc2)CC1 [Example 43]	6.4	
O=C(CN1CCN(Cc2ccccc2)CC1)Nc1c(C(=O)C2CC2)[nH]c2ccc(Br)cc12 [Example 14]	6.2	
CCOC(=O)c1[nH]c2ncccc2c1NC(=O)CN1CCCC(C)(C)C1 [Example 34]	5.7	
COC(=O)c1[nH]c2ccc(Br)cc2c1NC(=O)CN1CCN(C(c2ccccc2)c2ccccc2)CC1 [Example 47]	6.2	
Cc1cccc(N2CCN(CC(=O)Nc3c(C(=O)C4CC4)[nH]c4ccccc34)CC2)c1C [Example 10]	6.5	
O=C(CN1CCC(c2ccccc2)CC1)Nc1c(C(=O)C2CC2)[nH]c2ccc(Br)cc12 [Example 8]	6.5	
COC(=O)c1[nH]c2ccc(Br)cc2c1NC(=O)CN1CCSCC1 [Example 36]	5.8	
COC(=O)c1[nH]c2ccc(Br)cc2c1NC(=O)CN1CCC(c2ccccc2)CC1 [Example 39]	6.6	
